Laboratory results as given in ChEMBL document CHEMBL1201862, “PubChem BioAssay data set” (2004).
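Five concentrations, 48 hours, 96-well plates. At the GI50, growth is halved.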 Calls of active or inactive are those of the source. Cut-off read from the data, not from the text of the source: active = GI50 up to about 1.1 µM and inactive = higher.

Tests used:
Test in all cases: NCI tumour cell line growth inhibition, 48 h
SF-268 = test system: SF-268
EKVX = test system: EKVX
UACC-62 = test system: UACC-62
RPMI-8226 = test system: RPMI-8226
HOP-62 = test system: HOP-62
NCI/ADR-RES = test system: NCI/ADR-RES
SK-MEL-5 = test system: SK-MEL-5
KM12 = test system: KM12
MDA-MB-435 = test system: MDA-MB-435
TK-10 = test system: TK-10
NCI-H522 = test system: NCI-H522
T47D = test system: T47D
DU-145 = test system: DU-145
A498 = test system: A498
BT-549 = test system: BT-549
786-0 = test system: 786-0
HCT-116 = test system: HCT-116
UO-31 = test system: UO-31
Malme-3M = test system: Malme-3M

Measured: GI50

O=c1c2cc(I)ccc2nc(SCc2nncs2)n1Cc1ccccc1
inactive: SF-268 14.1 µM | EKVX 7 µM | UACC-62 13.6 µM | RPMI-8226 6.76 µM | HOP-62 20.3 µM | NCI/ADR-RES > 100 µM | SK-MEL-5 6.71 µM | KM12 11.8 µM | MDA-MB-435 19.2 µM | TK-10 29.5 µM | NCI-H522 4.78 µM | T47D 8.93 µM | DU-145 23.1 µM | A498 19.7 µM | BT-549 > 100 µM | 786-0 15 µM | HCT-116 11.6 µM | UO-31 1.17 µM

C[C@]12CC[C@H]3[C@@H](CCC4=CC(=O)C=C[C@@]43O)[C@@H]1CCC2=O
inactive: EKVX 70.8 µM | UACC-62 60.1 µM | RPMI-8226 > 100 µM | HOP-62 > 100 µM | NCI/ADR-RES 78.3 µM | SK-MEL-5 82 µM | KM12 > 100 µM | MDA-MB-435 > 100 µM | T47D > 100 µM | DU-145 > 100 µM | A498 > 100 µM | BT-549 55.2 µM | 786-0 > 100 µM | HCT-116 > 100 µM | UO-31 > 100 µM

O=[N+]([O-])/C(Cl)=C(\NCCN/C(C(Cl)=C(Cl)Cl)=C(/Cl)[N+](=O)[O-])C(Cl)=C(Cl)Cl
inactive: SF-268 40.8 µM | EKVX > 100 µM | Malme-3M 46.5 µM | UACC-62 31.2 µM | RPMI-8226 17.7 µM | HOP-62 71.8 µM | NCI/ADR-RES 89.7 µM | KM12 31.8 µM | MDA-MB-435 87.1 µM | TK-10 71.4 µM | T47D 51.2 µM | DU-145 > 100 µM | A498 48.1 µM | BT-549 69 µM | 786-0 31.6 µM | HCT-116 39.1 µM | UO-31 > 100 µM

CC(C)=CCC[C@@H](C)C1=C(O)C(=O)C(C)=C(Nc2ccccc2Br)C1=O
inactive: SF-268 7.89 µM | EKVX 17.3 µM | Malme-3M 9.4 µM | UACC-62 13.3 µM | RPMI-8226 8.24 µM | HOP-62 12.4 µM | NCI/ADR-RES 3.78 µM | SK-MEL-5 11.5 µM | KM12 12.5 µM | MDA-MB-435 19.9 µM | TK-10 22.4 µM | T47D 13.8 µM | DU-145 14.4 µM | A498 7.19 µM | BT-549 14 µM | 786-0 13.3 µM | HCT-116 18.1 µM | UO-31 11.3 µM

CN1C(=S)C(c2ccccc2)Sc2ccccc21 (stereo not given)
inactive: SF-268 > 100 µM | EKVX 14 µM | Malme-3M 97.7 µM | UACC-62 > 100 µM | RPMI-8226 > 100 µM | HOP-62 > 100 µM | NCI/ADR-RES > 100 µM | SK-MEL-5 34.8 µM | KM12 63.7 µM | MDA-MB-435 57 µM | TK-10 85.9 µM | NCI-H522 54.3 µM | T47D 78.5 µM | DU-145 > 100 µM | BT-549 42.7 µM | 786-0 > 100 µM | HCT-116 38.8 µM | UO-31 35.6 µM

CC(C)[C@H]1NC(=O)[C@H]2N=C(O[C@@H]2C)[C@@H]2CCCN2C(=O)[C@H](Cc2ccccc2)NC(=O)[C@@H]2COC(=N2)[C@@H](Cc2ccccc2)NC(=O)[C@@H]2COC1=N2
inactive: SF-268 > 100 µM | EKVX > 100 µM | Malme-3M > 100 µM | UACC-62 > 100 µM | RPMI-8226 > 100 µM | HOP-62 > 100 µM | NCI/ADR-RES > 100 µM | SK-MEL-5 > 100 µM | KM12 > 100 µM | MDA-MB-435 > 100 µM | TK-10 > 100 µM | NCI-H522 > 100 µM | T47D > 100 µM | DU-145 > 100 µM | BT-549 > 100 µM | 786-0 > 100 µM | HCT-116 > 100 µM | UO-31 > 100 µM

C1=C(c2ccccc2)SC=C(c2ccccc2)S1
inactive: SF-268 28.3 µM | EKVX 24.1 µM | Malme-3M 45.5 µM | UACC-62 35.9 µM | RPMI-8226 33.3 µM | HOP-62 > 100 µM | NCI/ADR-RES 19.9 µM | SK-MEL-5 19.6 µM | KM12 16.9 µM | MDA-MB-435 5.48 µM | TK-10 28.8 µM | T47D 53.3 µM | DU-145 > 100 µM | A498 17.9 µM | BT-549 17.9 µM | 786-0 > 100 µM | HCT-116 44.5 µM | UO-31 60.5 µM

N#Cc1nc(-c2cccc(-c3nc(C#N)c(N)o3)n2)oc1N
inactive: SF-268 > 100 µM | EKVX > 100 µM | Malme-3M > 100 µM | UACC-62 > 100 µM | RPMI-8226 > 100 µM | HOP-62 > 100 µM | NCI/ADR-RES > 100 µM | SK-MEL-5 > 100 µM | KM12 > 100 µM | MDA-MB-435 > 100 µM | TK-10 > 100 µM | NCI-H522 > 100 µM | T47D > 100 µM | DU-145 > 100 µM | A498 > 100 µM | 786-0 > 100 µM | HCT-116 > 100 µM | UO-31 > 100 µM

Cc1cc(S(=O)(=O)Nc2nc3ccccc3[nH]2)c(S)cc1Cl
inactive: SF-268 64.7 µM | EKVX 53.6 µM | UACC-62 79.4 µM | RPMI-8226 34.6 µM | HOP-62 39.4 µM | NCI/ADR-RES > 100 µM | SK-MEL-5 35.2 µM | KM12 37.5 µM | MDA-MB-435 49.8 µM | TK-10 > 100 µM | NCI-H522 97.3 µM | T47D 41.4 µM | DU-145 > 100 µM | A498 > 100 µM | BT-549 > 100 µM | 786-0 46.5 µM | HCT-116 22.4 µM | UO-31 > 100 µM

O=C(O)c1ccc(N/C(=C(/C(Cl)=C(Cl)Cl)[N+](=O)[O-])n2nnc3ccccc32)cc1
inactive: SF-268 > 100 µM | EKVX > 100 µM | Malme-3M > 100 µM | UACC-62 > 100 µM | RPMI-8226 > 100 µM | HOP-62 > 100 µM | NCI/ADR-RES > 100 µM | KM12 > 100 µM | MDA-MB-435 > 100 µM | T47D > 100 µM | A498 > 100 µM | BT-549 > 100 µM | 786-0 > 100 µM | HCT-116 > 100 µM | UO-31 > 100 µM

C=CC1(c2ccc3ccccc3c2)OCC(CC)O1 (stereo not given)
inactive: SF-268 71.6 µM | EKVX 25.1 µM | Malme-3M 30.5 µM | UACC-62 13.6 µM | RPMI-8226 46.3 µM | HOP-62 1.21 µM | NCI/ADR-RES > 100 µM | SK-MEL-5 47 µM | KM12 44.1 µM | MDA-MB-435 63.4 µM | TK-10 > 100 µM | NCI-H522 40.6 µM | T47D 35 µM | DU-145 > 100 µM | 786-0 85.9 µM | HCT-116 40.9 µM | UO-31 63.5 µM

COc1ccc(/C=C2\N=C(c3ccccc3)N(C3Nc4cc5c(cc4S3)NC(N3C(=O)/C(=C/c4ccc(OC)cc4)N=C3c3ccccc3)S5)C2=O)cc1 (stereo not given)
inactive: SF-268 29.6 µM | EKVX 16.7 µM | RPMI-8226 29.5 µM | HOP-62 41.2 µM | NCI/ADR-RES 19.2 µM | SK-MEL-5 37.2 µM | KM12 54.6 µM | MDA-MB-435 56.6 µM | TK-10 > 100 µM | NCI-H522 18.1 µM | T47D 65.3 µM | DU-145 50.5 µM | A498 40.4 µM | BT-549 23.3 µM | 786-0 28.1 µM | HCT-116 42.3 µM | UO-31 > 100 µM

COc1cccc(C(C#N)NC23CC4CC(CC(C4)C2)C3)c1 (stereo not given)
inactive: SF-268 > 100 µM | EKVX 85.5 µM | Malme-3M > 100 µM | UACC-62 > 100 µM | RPMI-8226 > 100 µM | HOP-62 > 100 µM | NCI/ADR-RES > 100 µM | SK-MEL-5 > 100 µM | KM12 > 100 µM | MDA-MB-435 > 100 µM | TK-10 > 100 µM | NCI-H522 > 100 µM | T47D > 100 µM | DU-145 > 100 µM | BT-549 > 100 µM | 786-0 > 100 µM | HCT-116 > 100 µM | UO-31 > 100 µM

Clc1nc(NC23CC4CC(CC(C4)C2)C3)nc(NC23CC4CC(CC(C4)C2)C3)n1
inactive: SF-268 > 83.4 µM | EKVX > 89.9 µM | Malme-3M > 100 µM | UACC-62 > 100 µM | RPMI-8226 19.1 µM | HOP-62 44.2 µM | NCI/ADR-RES 46 µM | SK-MEL-5 47.3 µM | KM12 41.2 µM | MDA-MB-435 92.3 µM | TK-10 > 100 µM | T47D 10.5 µM | DU-145 56.6 µM | A498 > 100 µM | BT-549 > 61.4 µM | 786-0 52.5 µM | HCT-116 15.6 µM | UO-31 23.4 µM

Cc1ccc(/C=N/Nc2cnccn2)s1
inactive: SF-268 > 100 µM | EKVX 80.5 µM | Malme-3M > 100 µM | UACC-62 > 100 µM | RPMI-8226 > 100 µM | HOP-62 > 100 µM | NCI/ADR-RES > 100 µM | SK-MEL-5 > 100 µM | KM12 > 100 µM | MDA-MB-435 > 100 µM | TK-10 > 100 µM | NCI-H522 83 µM | T47D > 100 µM | BT-549 > 100 µM | 786-0 > 100 µM | HCT-116 > 100 µM | UO-31 > 100 µM
